Test results taken from US20250228239A1, “MOLECULES HAVING PESTICIDAL UTILITY, AND INTERMEDIATES, COMPOSITIONS, AND PROCESSES, RELATED THERETO” (priority 2024, published 2025).

Legend:
[1] = tested on: Beet Armyworm (Spodoptera exigua, LAPHEG); assay: Bioassays on Beet Armyworm (BAW), 128-well diet tray assay; assay type: in vivo; conditions: Spodoptera exigua; Beet Armyworm; rating class; read-out: BAW
Method in brief: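 Eight diet wells per compound were treated at 50 μg/cm^2 (acetone-water 90:10), dried, then infested with 1–5 second-instar larvae each. After five to seven days at 25 °C under 14:10 photoperiod, mortality was scored and averaged across wells.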

[2] = tested on: Cabbage Looper (Trichoplusia ni, TRIPNI); assay: Bioassays on Cabbage Looper (CL), 128-well diet tray assay; assay type: in vivo; conditions: Trichoplusia ni; Cabbage Looper; rating class; read-out: CL
Method in brief: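 Percent mortality, averaged across eight replicate wells, after second-instar larvae (1–5 per well) fed for five to seven days on diet dosed at 50 μg/cm^2. Compound was applied in acetone-water 90:10 and dried; trays kept vented at 25° C under 14:10 photoperiod.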

Compound	pest or weed control at 50 µg/cm2 [1] [%]	pest or weed control at 50 µg/cm2 [2] [%]
O=C(Nc1c(F)ccc(NC(=O)C(F)(F)C(F)F)c1F)c1cc(NC(=O)[C@H]2[C@H](c3ccc(Cl)c(Cl)c3)C2(Cl)Cl)ccc1Cl [F1535, 2-Chloro-5-((1R,3R)-2,2-dichloro-3-(3,4-dichlorophenyl)cyclopropane-1-carboxamido)-N-(2,6-difluoro-3-(2,2,3,3-tetrafluoropropanamido)phenyl)benzamide]	50 to 100	50 to 100
CC(=O)Nc1ccc(F)c(NC(=O)c2cc(NC(=O)[C@H]3[C@H](c4ccc(Cl)c(Cl)c4)C3(Cl)Cl)ccc2Cl)c1F [F1536, N-(3-Acetamido-2,6-difluorophenyl)-2-chloro-5-((1R,3R)-2,2-dichloro-3-(3,4-dichlorophenyl)cyclopropane-1-carboxamido)benzamide]	50 to 100	50 to 100
O=C(Nc1c(F)ccc(NC(=O)C(F)(F)F)c1F)c1cc(NC(=O)[C@H]2[C@H](c3ccc(Cl)c(Cl)c3)C2(Cl)Cl)ccc1Cl [F1537, 2-Chloro-5-((1R,3R)-2,2-dichloro-3-(3,4-dichlorophenyl)cyclopropane-1-carboxamido)-N-(2,6-difluoro-3-(2,2,2-trifluoroacetamido)phenyl)benzamide]	50 to 100	50 to 100
O=C(Nc1c(F)ccc(NC(=O)C(F)(F)F)c1F)c1cc(NC(=O)[C@H]2[C@H](c3ccc(F)c(C(F)(F)F)c3)C2(Cl)Cl)ccc1Cl [F1538, 2-Chloro-5-((1R,3R)-2,2-dichloro-3-(4-fluoro-3-(trifluoromethyl)phenyl)cyclopropane-1-carboxamido)-N-(2,6-difluoro-3-(2,2,2-trifluoroacetamido)phenyl)benzamide]	50 to 100	50 to 100
CC(=O)Nc1cc(NC(=O)c2cc(NC(=O)[C@H]3[C@H](c4ccc(F)c(C(F)(F)F)c4)C3(Cl)Cl)ccc2Cl)c(F)cc1F [F1539, N-(5-Acetamido-2,4-difluorophenyl)-2-chloro-5-((1R,3R)-2,2-dichloro-3-(4-fluoro-3-(trifluoromethyl)phenyl)cyclopropane-1-carboxamido)benzamide]	50 to 100	50 to 100
O=C(Nc1cc(NC(=O)C(F)F)c(F)cc1F)c1cc(NC(=O)[C@H]2[C@H](c3ccc(F)c(C(F)(F)F)c3)C2(Cl)Cl)ccc1Cl [F1540, 2-Chloro-5-((1R,3R)-2,2-dichloro-3-(4-fluoro-3-(trifluoromethyl)phenyl)cyclopropane-1-carboxamido)-N-(5-(2,2-difluoroacetamido)-2,4-difluorophenyl)benzamide]	50 to 100	50 to 100
O=C(Nc1cc(NC(=O)C(F)(F)F)c(F)cc1F)c1cc(NC(=O)[C@H]2[C@H](c3ccc(F)c(C(F)(F)F)c3)C2(Cl)Cl)ccc1Cl [F1541, 2-Chloro-5-((1R,3R)-2,2-dichloro-3-(4-fluoro-3-(trifluoromethyl)phenyl)cyclopropane-1-carboxamido)-N-(2,4-difluoro-5-(2,2,2-trifluoroacetamido)phenyl)benzamide]	50 to 100	50 to 100
CC(=O)Nc1c(F)ccc(NC(=O)c2cc(NC(=O)[C@H]3[C@H](c4ccc(Cl)c(Cl)c4)C3(Cl)Cl)cc(C)c2Cl)c1F [F1543, N-(3-Acetamido-2,4-difluorophenyl)-2-chloro-5-((1R,3R)-2,2-dichloro-3-(3,4-dichlorophenyl)cyclopropane-1-carboxamido)-3-methylbenzamide]	50 to 100	50 to 100
CC(=O)Nc1c(F)ccc(NC(=O)c2cc(NC(=O)[C@H]3[C@H](c4cc(Cl)c(Cl)c(Cl)c4)C3(Cl)Cl)cc(C)c2Cl)c1F [F1544, N-(3-Acetamido-2,4-difluorophenyl)-2-chloro-5-((1R,3R)-2,2-dichloro-3-(3,4,5-trichlorophenyl)cyclopropane-1-carboxamido)-3-methylbenzamide]	50 to 100	50 to 100
CC(=O)Nc1c(F)ccc(NC(=O)c2cc(NC(=O)[C@H]3[C@H](c4ccc(F)c(C(F)(F)F)c4)C3(Cl)Cl)cc(C)c2Cl)c1F [F1545, N-(3-acetamido-2,4-difluorophenyl)-2-chloro-5-((1R,3R)-2,2-dichloro-3-(4-fluoro-3-(trifluoromethyl)phenyl)cyclopropane-1-carboxamido)-3-methylbenzamide]	50 to 100	50 to 100
CC(=O)Nc1cc(NC(=O)c2cc(NC(=O)[C@H]3[C@H](c4ccc(Cl)c(Cl)c4)C3(Cl)Cl)cc(C)c2Cl)c(F)cc1F [F1546, N-(5-Acetamido-2,4-difluorophenyl)-2-chloro-5-((1R,3R)-2,2-dichloro-3-(3,4-dichlorophenyl)cyclopropane-1-carboxamido)-3-methylbenzamide]	50 to 100	50 to 100
CC(=O)Nc1cc(NC(=O)c2cc(NC(=O)[C@H]3[C@H](c4cc(Cl)c(Cl)c(Cl)c4)C3(Cl)Cl)cc(C)c2Cl)c(F)cc1F [F1547]	50 to 100	50 to 100
CC(=O)Nc1cc(NC(=O)c2cc(NC(=O)[C@H]3[C@H](c4ccc(F)c(C(F)(F)F)c4)C3(Cl)Cl)cc(C)c2Cl)c(F)cc1F [F1548, N-(5-Acetamido-2,4-difluorophenyl)-2-chloro-5-((1R,3R)-2,2-dichloro-3-(4-fluoro-3-(trifluoromethyl)phenyl)cyclopropane-1-carboxamido)-3-methylbenzamide]	50 to 100	50 to 100
CNc1c(F)ccc(NC(=O)c2cc(NC(=O)[C@H]3[C@H](c4ccc(Cl)c(Cl)c4)C3(Cl)Cl)ccc2Cl)c1F [F1550, 2-Chloro-5-((1R,3R)-2,2-dichloro-3-(3,4-dichlorophenyl)cyclopropane-1-carboxamido)-N-(2,4-difluoro-3-(methylamino)phenyl)benzamide]	50 to 100	50 to 100
O=C(Nc1c(F)ccc(NC(=O)C(F)(F)C(F)F)c1F)c1cc(NC(=O)[C@H]2[C@H](c3ccc(F)c(C(F)(F)F)c3)C2(Cl)Cl)ccc1Cl [F1564, 2-Chloro-5-((1R,3R)-2,2-dichloro-3-(4-fluoro-3-(trifluoromethyl)phenyl)cyclopropane-1-carboxamido)-N-(2,6-difluoro-3-(2,2,3,3-tetrafluoropropanamido)phenyl)benzamide]	50 to 100	50 to 100
O=C(Nc1cc(NC(=O)C(F)(F)C(F)F)c(F)cc1F)c1cc(NC(=O)[C@H]2[C@H](c3ccc(Cl)c(Cl)c3)C2(Cl)Cl)ccc1Cl [F1565, 2-Chloro-5-((1R,3R)-2,2-dichloro-3-(3,4-dichlorophenyl)cyclopropane-1-carboxamido)-N-(2,4-difluoro-5-(2,2,3,3-tetrafluoropropanamido)phenyl)benzamide]	50 to 100	50 to 100
Nc1cc(NC(=O)c2cc(NC(=O)[C@H]3[C@H](c4ccc(F)c(C(F)(F)F)c4)C3(Cl)Cl)ccc2Cl)c(F)cc1F [F1566, N-(5-Amino-2,4-difluorophenyl)-2-chloro-5-((1R,3R)-2,2-dichloro-3-(4-fluoro-3-(trifluoromethyl)phenyl)cyclopropane-1-carboxamido)benzamide]	50 to 100	50 to 100
O=C(Nc1ccc(F)c(NC(=O)C(F)(F)C(F)F)c1F)c1cc(NC(=O)[C@H]2[C@H](c3cc(Cl)c(Cl)c(Cl)c3)C2(Cl)Cl)ccc1Cl [F1567, 2-Chloro-5-((1R,3R)-2,2-dichloro-3-(3,4,5-trichlorophenyl)cyclopropane-1-carboxamido)-N-(2,4-difluoro-3-(2,2,3,3-tetrafluoropropanamido)phenyl)benzamide]	50 to 100	50 to 100
O=C(Nc1cc(NC(=O)C(F)(F)C(F)F)c(F)cc1F)c1cc(NC(=O)[C@H]2[C@H](c3cc(Cl)c(Cl)c(Cl)c3)C2(Cl)Cl)ccc1Cl [F1568, 2-Chloro-5-((1R,3R)-2,2-dichloro-3-(3,4,5-trichlorophenyl)cyclopropane-1-carboxamido)-N-(2,4-difluoro-5-(2,2,3,3-tetrafluoropropanamido)phenyl)benzamide]	50 to 100	50 to 100
O=C(Nc1cc(NC(=O)C(F)(F)C(F)F)c(F)cc1F)c1cc(NC(=O)[C@H]2[C@H](c3ccc(F)c(C(F)(F)F)c3)C2(Cl)Cl)ccc1Cl [F1569, 2-Chloro-5-((1R,3R)-2,2-dichloro-3-(4-fluoro-3-(trifluoromethyl)phenyl)cyclopropane-1-carboxamido)-N-(2,4-difluoro-5-(2,2,3,3-tetrafluoropropanamido)phenyl)benzamide]	50 to 100	50 to 100
CC(=O)Nc1c(F)ccc(NC(=O)c2cc(NC(=O)[C@H]3[C@H](c4ccc(F)c(C(F)(F)F)c4)C3(Cl)Cl)cc(F)c2F)c1F [F1570, N-(3-Acetamido-2,4-difluorophenyl)-5-((1R,3R)-2,2-dichloro-3-(4-fluoro-3-(trifluoromethyl)phenyl)cyclopropane-1-carboxamido)-2,3-difluorobenzamide]	50 to 100	50 to 100
O=C(Nc1ccc(F)c(NC(=O)C(F)F)c1F)c1cc(NC(=O)[C@H]2[C@H](c3ccc(F)c(C(F)(F)F)c3)C2(Cl)Cl)cc(F)c1F [F1571, 5-((1R,3R)-2,2-Dichloro-3-(4-fluoro-3-(trifluoromethyl)phenyl)cyclopropane-1-carboxamido)-N-(3-(2,2-difluoroacetamido)-2,4-difluorophenyl)-2,3-difluorobenzamide]	50 to 100	50 to 100
